The record followed here is patent US11331299B2, “Medicinal use of serrulatane diterpenes” (The University of Sydney, priority 2016, dated 2022).

pIC50: −log10 of the molar value.

In experiment [1] the target is T1, TAF1(2)(h) bromodomain (Homo sapiens, UniProt P21675).
T1 construct: Bromodomain
T1 sequence (P21675 1519-1628 limits assumed): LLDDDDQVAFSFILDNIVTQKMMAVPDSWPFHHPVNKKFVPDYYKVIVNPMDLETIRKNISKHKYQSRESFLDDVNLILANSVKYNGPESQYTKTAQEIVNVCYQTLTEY
The experiment is described as follows: Epigenetic binding assay, Bromodomain. The note with it: 10 μM; for inhibition at 10 µM: read-out: % Inhibition of Control Specific Binding.

Experiment [2] relates to NF-κB. The experiment is described as follows: Transcription Response, NF-κB. Format: cell-based, Human. How it is done:
(§1) The in vitro pharmacological studies were conducted by Eurofins PanLab (Taiwan) using the parameters shown in Table 13 with respect to appropriate literature references.

For experiment [3], the target named is T2, WHSC1(h) (NSD2(h)) (Homo sapiens, UniProt O96028).
T2 sequence (O96028 1-1365): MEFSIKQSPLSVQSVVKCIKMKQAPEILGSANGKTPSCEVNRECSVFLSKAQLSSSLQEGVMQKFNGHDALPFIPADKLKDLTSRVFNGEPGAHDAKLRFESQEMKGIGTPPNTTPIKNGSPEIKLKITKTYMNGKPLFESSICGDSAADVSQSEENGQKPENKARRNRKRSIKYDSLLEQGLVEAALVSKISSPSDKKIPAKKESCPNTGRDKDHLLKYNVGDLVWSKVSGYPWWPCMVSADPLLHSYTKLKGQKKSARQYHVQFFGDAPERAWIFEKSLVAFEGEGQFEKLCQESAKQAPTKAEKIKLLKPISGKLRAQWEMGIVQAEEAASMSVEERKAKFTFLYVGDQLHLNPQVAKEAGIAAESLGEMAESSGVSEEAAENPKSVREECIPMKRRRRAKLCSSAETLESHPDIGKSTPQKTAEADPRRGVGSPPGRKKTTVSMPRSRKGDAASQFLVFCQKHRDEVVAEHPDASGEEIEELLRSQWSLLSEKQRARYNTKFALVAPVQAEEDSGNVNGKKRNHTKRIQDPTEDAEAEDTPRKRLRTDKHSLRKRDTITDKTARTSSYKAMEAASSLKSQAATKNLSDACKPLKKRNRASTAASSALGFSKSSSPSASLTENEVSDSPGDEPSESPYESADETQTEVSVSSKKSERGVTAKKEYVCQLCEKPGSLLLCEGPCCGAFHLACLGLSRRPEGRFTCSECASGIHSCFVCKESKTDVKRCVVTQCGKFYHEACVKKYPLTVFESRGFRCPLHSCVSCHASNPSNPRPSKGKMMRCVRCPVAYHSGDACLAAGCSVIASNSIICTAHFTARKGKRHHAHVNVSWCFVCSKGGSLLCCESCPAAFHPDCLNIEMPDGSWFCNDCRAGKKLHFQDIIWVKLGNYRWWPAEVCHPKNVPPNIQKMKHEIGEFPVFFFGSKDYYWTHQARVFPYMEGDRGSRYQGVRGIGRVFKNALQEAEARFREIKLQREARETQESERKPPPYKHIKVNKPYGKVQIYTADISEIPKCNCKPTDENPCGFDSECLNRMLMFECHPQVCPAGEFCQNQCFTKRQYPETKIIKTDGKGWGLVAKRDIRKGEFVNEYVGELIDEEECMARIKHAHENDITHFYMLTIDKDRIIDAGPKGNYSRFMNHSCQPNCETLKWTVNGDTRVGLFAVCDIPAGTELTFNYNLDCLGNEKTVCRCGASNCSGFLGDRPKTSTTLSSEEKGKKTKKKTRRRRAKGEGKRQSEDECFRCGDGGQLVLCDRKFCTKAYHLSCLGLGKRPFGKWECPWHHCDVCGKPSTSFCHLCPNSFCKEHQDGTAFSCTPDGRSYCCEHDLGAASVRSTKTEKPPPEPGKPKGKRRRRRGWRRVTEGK
The experiment is described as follows: Epigenetic enzyme assay, Methyltransferases (MTs). Format: biochemical. Particulars: 10 μM; read-out: % Inhibition of Control Values.

The target of experiment [4] is USP 10 (h) (Homo sapiens, UniProt Q14694). In words: Epigenetic enzyme assay, Ubiquitin modifying enzymes. Format: biochemical. The note with it: 10 μM; read-out: % Inhibition of Control Values.
Experiment [5] addresses PIM1(h) (histone H3 full length substrate) (Homo sapiens, UniProt P11309). In words: Epigenetic enzyme assay, Kinases. Format: biochemical. Particulars: read-out: % Inhibition of Control Values.
For experiment [6], the system named is Chemokine CXCR1/2 (IL-8, Non-Selective). The experiment is described as follows: Chemokine CXCR1/2 (IL-8, Non-Selective) radio ligand binding. Further details: species or system Human. The note with it: 10 μM; assay year 2015. As to the method:
as §1

Experiment [7] deals with H3K9 me2. The experiment is described as follows: Cell-based detection methyl modifications. Particulars: read-out: % Inhibition of Control Values.
Experiment [8] has as its target Sirtuin 6 (h) (Homo sapiens, UniProt Q8N6T7). The experiment is described as follows: Epigenetic enzyme assay, Sirtuins. Format: biochemical. The note with it: 10 μM; read-out: % Inhibition of Control Values.
In experiment [9] the target is T3, sirtuin 1 (h) (inhibitor effect) (Homo sapiens, UniProt Q96EB6).
T3 sequence (Q96EB6 1-747): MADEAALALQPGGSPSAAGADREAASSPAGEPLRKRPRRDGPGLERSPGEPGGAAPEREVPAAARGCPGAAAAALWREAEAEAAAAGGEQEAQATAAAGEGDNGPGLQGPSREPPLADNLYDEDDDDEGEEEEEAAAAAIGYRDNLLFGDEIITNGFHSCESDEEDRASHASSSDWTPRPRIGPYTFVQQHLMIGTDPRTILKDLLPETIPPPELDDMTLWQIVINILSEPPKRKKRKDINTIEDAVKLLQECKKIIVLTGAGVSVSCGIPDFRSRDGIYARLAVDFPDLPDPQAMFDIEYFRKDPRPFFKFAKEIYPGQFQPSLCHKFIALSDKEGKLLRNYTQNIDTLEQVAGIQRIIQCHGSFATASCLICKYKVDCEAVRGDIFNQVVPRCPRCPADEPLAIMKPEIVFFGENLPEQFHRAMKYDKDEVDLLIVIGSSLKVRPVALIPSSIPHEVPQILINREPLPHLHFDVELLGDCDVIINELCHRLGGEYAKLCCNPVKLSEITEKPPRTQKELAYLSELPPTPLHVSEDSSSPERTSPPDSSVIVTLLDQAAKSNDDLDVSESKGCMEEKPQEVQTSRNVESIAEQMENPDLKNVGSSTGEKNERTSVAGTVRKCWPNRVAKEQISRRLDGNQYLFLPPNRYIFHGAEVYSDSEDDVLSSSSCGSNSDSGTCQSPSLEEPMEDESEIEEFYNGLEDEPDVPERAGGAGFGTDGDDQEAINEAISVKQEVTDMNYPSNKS
The experiment is described as follows: Epigenetic enzyme assay, Sirtuins. Format: biochemical. The note with it: read-out: % Inhibition of Control Values.

Sequence of USP 10 (h) (Q14694 whole entry): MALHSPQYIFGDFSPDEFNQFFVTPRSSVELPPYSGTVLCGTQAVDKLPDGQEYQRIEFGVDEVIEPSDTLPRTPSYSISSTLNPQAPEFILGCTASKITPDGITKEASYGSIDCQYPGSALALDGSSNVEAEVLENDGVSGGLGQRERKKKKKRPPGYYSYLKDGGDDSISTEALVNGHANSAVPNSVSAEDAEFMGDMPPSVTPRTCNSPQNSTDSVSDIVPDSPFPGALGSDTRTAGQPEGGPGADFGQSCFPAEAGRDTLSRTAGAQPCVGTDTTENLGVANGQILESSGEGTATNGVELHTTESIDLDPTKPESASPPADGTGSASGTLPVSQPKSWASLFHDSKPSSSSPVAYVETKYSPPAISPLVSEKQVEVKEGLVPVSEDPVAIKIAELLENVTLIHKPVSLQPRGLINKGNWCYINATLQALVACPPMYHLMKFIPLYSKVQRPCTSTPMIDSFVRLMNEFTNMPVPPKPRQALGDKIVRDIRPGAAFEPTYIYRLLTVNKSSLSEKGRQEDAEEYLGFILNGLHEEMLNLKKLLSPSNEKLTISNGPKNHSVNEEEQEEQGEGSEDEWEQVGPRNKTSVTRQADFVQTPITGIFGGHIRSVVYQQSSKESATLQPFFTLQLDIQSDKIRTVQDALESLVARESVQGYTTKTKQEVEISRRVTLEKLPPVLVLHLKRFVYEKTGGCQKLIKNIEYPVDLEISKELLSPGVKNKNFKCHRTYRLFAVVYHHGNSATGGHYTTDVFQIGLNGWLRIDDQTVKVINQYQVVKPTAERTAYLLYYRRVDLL
Sequence of PIM1(h) (histone H3 full length substrate) (P11309 whole entry): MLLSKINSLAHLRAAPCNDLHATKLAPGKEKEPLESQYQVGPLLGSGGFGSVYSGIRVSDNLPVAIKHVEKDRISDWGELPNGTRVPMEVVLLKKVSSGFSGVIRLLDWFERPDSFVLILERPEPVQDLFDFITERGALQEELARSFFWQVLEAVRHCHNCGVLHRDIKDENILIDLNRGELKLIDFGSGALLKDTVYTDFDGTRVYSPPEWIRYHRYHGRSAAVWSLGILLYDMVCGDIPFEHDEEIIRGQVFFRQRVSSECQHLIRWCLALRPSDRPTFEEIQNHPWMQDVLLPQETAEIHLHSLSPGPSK
Sequence of Sirtuin 6 (h) (Q8N6T7 whole entry): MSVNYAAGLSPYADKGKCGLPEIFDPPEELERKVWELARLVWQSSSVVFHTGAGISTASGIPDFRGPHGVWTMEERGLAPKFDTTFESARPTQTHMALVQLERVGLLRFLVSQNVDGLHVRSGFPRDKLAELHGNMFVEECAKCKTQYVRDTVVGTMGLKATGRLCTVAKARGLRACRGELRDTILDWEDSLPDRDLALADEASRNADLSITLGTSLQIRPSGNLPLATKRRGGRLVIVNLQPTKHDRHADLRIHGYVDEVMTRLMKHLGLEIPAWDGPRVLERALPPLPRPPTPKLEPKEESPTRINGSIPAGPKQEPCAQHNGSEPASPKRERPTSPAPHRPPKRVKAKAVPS

Turning to `CC(C)=CCC[C@@H]1COc2c(C)cc(O)c3c2[C@H]1CC[C@H]3C` [Compound 3, 5,18-epoxy-8-hydroxyserrulat-14-ene], the inhibition – broadly, the change of the read-out against control, counted positive when it falls – at 10 µM is 22% in experiment [1]; 7% in experiment [3]; -7% in experiment [4]; 5% in [5]; 20% in experiment [7]; -4% in experiment [8]. Moreover, the inhibition at 10 µM in experiment [9] was -5%. In addition, the “Resp Av %” value is given as −16% in experiment [2] (Antagonist, Conc 0.001 μM); −11% in experiment [2] (Antagonist, Conc 0.01 μM); −7% in experiment [2] (Antagonist, Conc 0.1 μM); 1% in experiment [2] (Antagonist, Conc 1 μM); −19% in experiment [2] (Antagonist, Conc 10 μM). For the same compound, in experiment [2] (Homo sapiens, Antagonist), the pIC50 – broadly, the IC50 on a negative log10 scale, so that one unit is a factor of ten – is < 5.00. Also, in [6], the “% Control Response” value is −1%.
Regarding `CC(C)=CCC[C@@H]1C(O)Oc2c(C)cc(O)c3c2[C@H]1CC[C@H]3C` (stereo partly drawn) [Compound 2, 5,18-epoxyserrulat-14-en-8,18-diol], the inhibition at 10 µM stood at 28% in [1]; 14% in experiment [3]; 2% in experiment [4]; 11% in experiment [5]; 11% in [7]; 6% in [8]. Besides, the inhibition at 10 µM in experiment [9] was -3%. In addition, the “Resp Av %” value is reported as −7% in [2] (Antagonist, Conc 0.001 μM); −7% in [2] (Antagonist, Conc 0.01 μM); −3% in experiment [2] (Antagonist, Conc 0.1 μM); 10% in [2] (Antagonist, Conc 1 μM); 34% in [2] (Antagonist, Conc 10 μM). The pIC50 in experiment [2] (Homo sapiens, Antagonist) is < 5.00. The “% Control Response” value in experiment [6] is given as −28%.
With `CC(C)=CCC[C@H](CO)[C@@H]1CC[C@@H](C)c2c1cc(C)c(O)c2O` [Compound 1, 7,8,18-trihydroxyserrulat-14-ene], the “% Inhibition of Control Specific Binding” value in experiment [1] was “significant inhibitory activity”. In addition, the inhibition at 10 µM in [1] was 62%; in experiment [3] it was 3%; in [4] it was 7%; in [5], 22%; in experiment [7], 1%; in [8], 2%. Moreover, in experiment [9], the inhibition at 10 µM amounted to 2%. Moreover, the “Resp Av %” value in experiment [2] (Antagonist, Conc 0.001 μM) is −25%; in experiment [2] (Antagonist, Conc 0.01 μM), −5%; in experiment [2] (Antagonist, Conc 0.1 μM) it was 0%; in experiment [2] (Antagonist, Conc 1 μM), 17%; in experiment [2] (Antagonist, Conc 10 μM), 103%. Besides, the pIC50 was 5.85 in experiment [2] (Homo sapiens, Antagonist); 5.87 in experiment [2] (Homo sapiens, transcription response NF-κB); 6.16 in [2] (transcription response NF-κB). For the same compound, in [6], the “% Control Response” value came to 30%.
